Results on 24 molecules are retold here after PubChem BioAssay AID330 (DTP/NCI, 2004).

Where “and” joins values, the source holds several entries; their conditions need not be identical. Equal values may be shown once. Inconclusive results and toxic doses are left out. Peptide text beside a SMILES is read from it. * marks the point of attachment. Cbz = O=C(OCc1ccccc1)*

In this experiment the test system is P388 leukemia ip, CD2F1 mice, survival T/C. Kind of experiment: NCI In Vivo Anticancer Drug Screen. Data for tumor model P388 Leukemia (intraperitoneal) in CD2F1 (CDF1) mice. The conditions noted are these: endpoint: median survival time, higher = longer survival. Summed up: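 Mice carrying the transplanted tumor received test compound or vehicle. Survival was recorded in each group, and the value is the treated-group measurement divided by that of the vehicle-treated control group.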

Where [1] appears, read: dose: 50.0 mg/kg/injection, schedule: Q01DX005 (ip), vehicle: saline with Tween-80.
[2] abbreviates: dose: 100.0 mg/kg/injection, schedule: Q01DX005 (ip), vehicle: saline with Tween-80.
The mark [3] stands for this setting: dose: 200.0 mg/kg/injection, schedule: Q01DX005 (ip), vehicle: saline with Tween-80.
Where [4] appears, read: dose: 15.0 mg/kg/injection, schedule: Q01DX005 (ip), vehicle: saline with Tween-80.
Setting [5] is: dose: 30.0 mg/kg/injection, schedule: Q01DX005 (ip), vehicle: saline with Tween-80.
Setting [6] is: dose: 60.0 mg/kg/injection, schedule: Q01DX005 (ip), vehicle: saline with Tween-80.
The mark [7] stands for this setting: dose: 120.0 mg/kg/injection, schedule: Q01DX005 (ip), vehicle: saline with Tween-80.
The mark [8] stands for this setting: dose: 240.0 mg/kg/injection, schedule: Q01DX005 (ip), vehicle: saline with Tween-80.
[9] abbreviates: dose: 50.0 mg/kg/injection, schedule: Q01DX009 (ip), vehicle: saline.
Setting [10] is: dose: 12.5 mg/kg/injection, schedule: Q01DX009 (ip), vehicle: Klucel (hydroxypropylcellulose) (HPC).
Where [11] appears, read: dose: 25.0 mg/kg/injection, schedule: Q01DX009 (ip), vehicle: Klucel (hydroxypropylcellulose) (HPC).
[12] abbreviates: dose: 50.0 mg/kg/injection, schedule: Q01DX009 (ip), vehicle: Klucel (hydroxypropylcellulose) (HPC).
Setting [13] is: dose: 100.0 mg/kg/injection, schedule: Q01DX009 (ip), vehicle: Klucel (hydroxypropylcellulose) (HPC).
[14] abbreviates: dose: 200.0 mg/kg/injection, schedule: Q01DX009 (ip), vehicle: Klucel (hydroxypropylcellulose) (HPC).
[15] abbreviates: dose: 12.5 mg/kg/injection, schedule: Q01DX009 (ip), vehicle: saline with Tween-80.
The mark [16] stands for this setting: dose: 25.0 mg/kg/injection, schedule: Q01DX009 (ip), vehicle: saline with Tween-80.
Where [17] appears, read: dose: 50.0 mg/kg/injection, schedule: Q01DX009 (ip), vehicle: saline with Tween-80.
[18] abbreviates: dose: 100.0 mg/kg/injection, schedule: Q01DX009 (ip), vehicle: saline with Tween-80.
Setting [19] is: dose: 200.0 mg/kg/injection, schedule: Q01DX009 (ip), vehicle: saline with Tween-80.

Take `C=C(CCCC(C)(C)OCOCCOC)[Si](C)(C)C`: the T/C was 101 % of control under setting [1], 100 % of control under setting [2] and 102 % of control under setting [3].

As for `CS(=O)(=O)c1nnnn1-c1ccccc1`, the T/C was 106 % of control (dose: 12.5 mg/kg/injection, schedule: Q04DX003 (ip), vehicle: saline with Tween-80); 106 % of control (dose: 25.0 mg/kg/injection, schedule: Q04DX003 (ip), vehicle: saline with Tween-80); 102 % of control and 112 % of control (dose: 50.0 mg/kg/injection, schedule: Q04DX003 (ip), vehicle: saline with Tween-80); 105 % of control (dose: 100.0 mg/kg/injection, schedule: Q04DX003 (ip), vehicle: saline with Tween-80).

`CC1=C(C(=O)NCc2ccccc2)C(c2cccc([N+](=O)[O-])c2)C(C(=O)NCc2ccccc2)=C(C)N1`: the T/C is, setting by setting: under setting [4], 107 % of control; under setting [5], 90 % of control; under setting [6], 87 % of control.

Consider `CN(C)CCCn1ncc(Sc2cc([N+](=O)[O-])ccc2N)c(Cl)c1=O`, for which the T/C is, setting by setting: under setting [4], 95 % of control; under setting [5], 94 % of control; under setting [6], 99 % of control and 107 % of control and 94 % of control; under setting [7], 93 % of control; under setting [8], 89 % of control.

With `COc1cc2cnc(-c3ccccn3)c(O)c2cc1OC`, the T/C under setting [9] is 100 % of control; the T/C (dose: 100.0 mg/kg/injection, schedule: Q01DX009 (ip), vehicle: saline) is 90 % of control; the T/C (dose: 200.0 mg/kg/injection, schedule: Q01DX009 (ip), vehicle: saline) was 94 % of control.

Consider `O=c1oc(-c2ccco2)ns1`, for which the T/C reads like this: under setting [10], 97 % of control; under setting [11], 110 % of control; under setting [12], 97 % of control.

Regarding `Cc1cc(NS(=O)(=O)c2ccc(N)cc2)no1.[Ag]`, the T/C reads like this: under setting [10], 89 % of control; under setting [11], 101 % of control; under setting [12], 106 % of control.

Consider `N#Cc1nc2ccccc2n1OCc1ccccc1`, for which the T/C runs as follows: under setting [12], 97 % of control; under setting [13], 107 % of control; under setting [14], 102 % of control.

For `O=C(NC1CC1)OCc1c(COC(=O)NC2CC2)c(-c2ccc(Cl)c(Cl)c2)n2c1CCC2`, the T/C (dose: 6.25 mg/kg/injection, schedule: Q01DX009 (ip), vehicle: distilled water + Tween-80) is 160 % of control; the T/C (dose: 12.5 mg/kg/injection, schedule: Q01DX009 (ip), vehicle: distilled water + Tween-80) was 171 % of control and 183 % of control; the T/C (dose: 25.0 mg/kg/injection, schedule: Q01DX009 (ip), vehicle: distilled water + Tween-80) was 101 % of control and 206 % of control.

On to `O=C1OC(c2ccc([N+](=O)[O-])cc2)=N/C1=C\c1ccc(Cl)cc1`, for which the T/C was 115 % of control (dose: 3.13 mg/kg/injection, schedule: Q01DX009 (ip), vehicle: Klucel (hydroxypropylcellulose) (HPC)); 115 % of control (dose: 6.25 mg/kg/injection, schedule: Q01DX009 (ip), vehicle: Klucel (hydroxypropylcellulose) (HPC)); 105 % of control and 88 % of control under setting [10]; 88 % of control under setting [11].

As for `CNC(=O)OCCN(CCOC(=O)NC)C(=O)N1c2ccccc2Sc2ccccc21`, the T/C was 94 % of control under setting [15]; 98 % of control under setting [16]; 91 % of control under setting [17]; 100 % of control under setting [18]; 100 % of control under setting [19].

In the case of `Cc1ccc(SC(=O)c2cccnc2Oc2ccccc2)cc1`, the T/C reads like this: (dose: 50.0 mg/kg/injection, schedule: Q01DX005 (ip), vehicle: Klucel (hydroxypropylcellulose) (HPC)) 90 % of control; (dose: 100.0 mg/kg/injection, schedule: Q01DX005 (ip), vehicle: Klucel (hydroxypropylcellulose) (HPC)) 99 % of control; (dose: 200.0 mg/kg/injection, schedule: Q01DX005 (ip), vehicle: Klucel (hydroxypropylcellulose) (HPC)) 96 % of control.

`CCOC(=O)C1=C(C)NC(C)=C(C(=O)OCC)C1c1ccccc1Cl`: the T/C is 100 % of control (dose: 12.5 mg/kg/injection, schedule: Q01DX009 (ip), vehicle: saline); 110 % of control (dose: 25.0 mg/kg/injection, schedule: Q01DX009 (ip), vehicle: saline); 120 % of control under setting [9].

On to `CP(C)(=S)[S][Sn]([CH3])([CH3])[S]P(C)(C)=S`, for which the T/C is 109 % of control and 113 % of control (dose: 6.25 mg/kg/injection, schedule: Q01DX005 (ip), vehicle: Klucel (hydroxypropylcellulose) (HPC)); 108 % of control and 115 % of control and 117 % of control (dose: 12.5 mg/kg/injection, schedule: Q01DX005 (ip), vehicle: Klucel (hydroxypropylcellulose) (HPC)); 105 % of control and 106 % of control and 122 % of control (dose: 25.0 mg/kg/injection, schedule: Q01DX005 (ip), vehicle: Klucel (hydroxypropylcellulose) (HPC)).

With `Cc1nc(O)c(-c2ccc(Cl)cc2)s1`, the T/C under setting [17] is 102 % of control, the T/C under setting [18] is 103 % of control and the T/C under setting [19] was 101 % of control.

Take `O=C1c2ccccc2C(=O)c2c1cccc2N1CCOCC1`: the T/C is 99 % of control and 100 % of control under setting [12]; 101 % of control under setting [13]; 103 % of control and 94 % of control under setting [14].

With `CC(NC(=O)C(Cc1ccc(OC(=O)OCc2ccccc2)cc1)NC(=O)OCc1ccccc1)C(=O)OCc1ccccc1` (stereo unspecified), the T/C under setting [1] was 96 % of control and the T/C under setting [2] was 92 % of control.

Consider `O=S(=O)(C#Cc1ccccc1)C(F)(F)F`, for which the T/C was 105 % of control (dose: 100.0 mg/kg/injection, schedule: Q01DX001 (ip), vehicle: saline); 105 % of control (dose: 200.0 mg/kg/injection, schedule: Q01DX001 (ip), vehicle: saline); 106 % of control (dose: 400.0 mg/kg/injection, schedule: Q01DX001 (ip), vehicle: saline).

Turning to `O=C(CC(=O)c1ccccc1)c1ccccc1.[Tl]`, the T/C by setting is: (dose: 6.25 mg/kg/injection, schedule: Q01DX009 (ip), vehicle: saline with Tween-80) 100 % of control; under setting [15], 98 % of control.

With `O=C(NC(Cc1ccccc1)C(=O)NC(CO)C(=O)O)OCc1ccccc1` (stereo not drawn) (Cbz-Phe-Ser-OH; configuration not given here), the T/C runs as follows: under setting [1], 100 % of control; under setting [2], 100 % of control; under setting [3], 98 % of control.

Turning to `S=C(S)N1CCCNCC1` (tested in a mixture with another compound), the T/C by setting is: under setting [15], 101 % of control and 89 % of control; under setting [16], 92 % of control and 97 % of control; under setting [17], 86 % of control and 97 % of control.

As for `Cn1c(Cl)cc2nc3ccccc3n2c1=O`, the T/C is, setting by setting: under setting [6], 96 % of control; under setting [7], 94 % of control; under setting [8], 100 % of control.

`COC(=O)C1CCC2C(C1)OC1(CC(OC(=O)/C=C/c3ccccc3)C(C)CO1)C21CO1` (stereo unspecified): the T/C was 100 % of control (dose: 3.0 mg/kg/injection, schedule: Q01DX005 (ip), vehicle: saline + alcohol); 95 % of control (dose: 5.0 mg/kg/injection, schedule: Q01DX009 (ip), vehicle: saline + alcohol); 97 % of control (dose: 6.0 mg/kg/injection, schedule: Q01DX005 (ip), vehicle: saline + alcohol); 106 % of control (dose: 10.0 mg/kg/injection, schedule: Q01DX009 (ip), vehicle: saline + alcohol); 97 % of control (dose: 12.0 mg/kg/injection, schedule: Q01DX005 (ip), vehicle: saline + alcohol); 103 % of control (dose: 20.0 mg/kg/injection, schedule: Q01DX009 (ip), vehicle: saline + alcohol). Further, the T/C was 99 % of control (dose: 24.0 mg/kg/injection, schedule: Q01DX005 (ip), vehicle: saline + alcohol) and 103 % of control (dose: 40.0 mg/kg/injection, schedule: Q01DX009 (ip), vehicle: saline + alcohol).

Turning to `COc1ccncc1CCc1cnccc1OC`, the T/C is 99 % of control (dose: 100.0 mg/kg/injection, schedule: Q04DX003 (ip), vehicle: saline); 93 % of control (dose: 200.0 mg/kg/injection, schedule: Q04DX003 (ip), vehicle: saline); 90 % of control (dose: 400.0 mg/kg/injection, schedule: Q04DX003 (ip), vehicle: saline).
